Legend:
SNORF25 receptor = target: T1, SNORF25 receptor (UniProt Q7TQN8); test: cAMP release in Cos-7 cells transiently transfected with SNORF25; type: cell-based; details: SNORF25 transiently transfected Cos-7 cells (FIG. 8)
T1 construct: Emax of cAMP response
T1 sequence (Q7TQN8 1-468): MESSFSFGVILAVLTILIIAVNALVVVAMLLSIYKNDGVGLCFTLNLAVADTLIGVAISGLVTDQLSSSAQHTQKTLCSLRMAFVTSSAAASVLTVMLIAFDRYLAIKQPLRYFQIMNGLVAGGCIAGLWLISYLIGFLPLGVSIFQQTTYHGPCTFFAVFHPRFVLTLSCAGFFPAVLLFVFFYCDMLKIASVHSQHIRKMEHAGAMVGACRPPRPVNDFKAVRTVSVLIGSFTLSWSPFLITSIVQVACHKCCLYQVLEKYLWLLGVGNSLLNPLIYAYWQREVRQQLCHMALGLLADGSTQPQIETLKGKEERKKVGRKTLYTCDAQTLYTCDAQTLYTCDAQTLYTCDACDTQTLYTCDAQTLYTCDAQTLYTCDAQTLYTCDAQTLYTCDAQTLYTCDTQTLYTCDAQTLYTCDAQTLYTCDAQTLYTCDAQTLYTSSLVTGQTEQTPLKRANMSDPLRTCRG
Procedure: COS-7 cells are grown on 150 mm plates in DMEM with supplements (Dulbecco's Modified Eagle Medium with 10% bovine calf serum, 4 mM glutamine, 100 units/ml penicillin/100 μg/ml streptomycin) at 37° C., 5% CO2. Stock plates of COS-7 cells are trypsinized and split 1:6 every 3–4 days.
(§1) A typical protocol for the electroporation method as applied to Cos-7 cells is described as follows. Cells to be used for transfection are split 24 hours prior to the transfection to provide flasks which are subconfluent at the time of transfection. The cells are harvested by trypsinization resuspended in their growth media and counted. 5×10^6 cells are suspended in 300 μl of DMEM and placed into an electroporation cuvette. 8 μg of receptor DNA plus 8 μg of any additional DNA needed (e.g. G protein expression vector, reporter construct, antibiotic resistance marker, mock vector, etc.) is added to the cell suspension, the cuvette is placed into a BioRad Gene Pulser and subjected to an electrical pulse (Gene Pulser settings: 0.25 kV voltage, 950 μF capacitance). […]
(§2) The receptor-mediated stimulation or inhibition of cyclic AMP (cAMP) formation may be assayed in cells expressing the receptors. […] The plates are stored at 4° C. for 15 min, and the cAMP content in the stopping solution is measured by radioimmunoassay. Radioactivity may be quantified using a gamma counter equipped with data reduction software. […]

dopamine D5 receptor = target: T2, dopamine D5 receptor (Homo sapiens, UniProt P21918); test: cAMP in Cos-7 cells transfected with dopamine D5 receptor; type: cell-based; details: 10 μM, dopamine D5 (FIG. 7)
T2 construct: expressed in transfected cells; host or cells: Cos-7 cells
Procedure: as §1, with “capacitance). Following the pulse, 800 μl of complete DMEM is added to each cuvette and the suspension transferred to a sterile tube. Complete medium is added to each tube to bring the final cell concentration to 1×10^5 cells/100 μl.” for “capacitance).”
as §2

[1] = system: control (CFTR alone) oocytes; test: CFTR Cl- currents in control oocytes injected with only CFTR mRNA; type: cell-based, Xenopus laevis; details: 10 μM
SNORF25 = target: T3, SNORF25 (Homo sapiens, UniProt Q8TDV5); test: CFTR Cl- currents in Xenopus oocytes co-injected with SNORF25 and CFTR mRNA; type: cell-based; parameters: from linearized plasmids or PCR products containing the complete coding region of the genes; expressed in transfected cells; host or cells: Xenopus laevis oocytes injected with SNORF25 mRNA (with or without CFTR mRNA)
T3 sequence (Q8TDV5 1-335): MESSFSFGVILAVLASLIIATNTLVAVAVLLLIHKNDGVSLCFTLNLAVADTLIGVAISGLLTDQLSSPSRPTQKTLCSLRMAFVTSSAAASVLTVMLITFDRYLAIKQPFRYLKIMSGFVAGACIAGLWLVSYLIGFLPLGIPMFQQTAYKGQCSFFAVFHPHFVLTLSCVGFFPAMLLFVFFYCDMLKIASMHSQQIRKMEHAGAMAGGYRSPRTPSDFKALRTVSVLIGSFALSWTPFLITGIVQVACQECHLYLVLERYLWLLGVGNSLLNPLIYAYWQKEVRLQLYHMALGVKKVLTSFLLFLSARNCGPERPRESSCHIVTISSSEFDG
Procedure: Oocytes are harvested from Xenopus laevis and injected with mRNA transcripts as previously described (Quick and Lester, 1994; Smith et al., 1997). The test receptor of this invention and Gα subunit RNA transcripts are synthesized using the T7 polymerase (“Message Machine,” Ambion) from linearized plasmids or PCR products containing the complete coding region of the genes. Oocytes are injected with 10 ng synthetic receptor RNA and incubated for 3–8 days at 17 degrees. Three to eight hours prior to recording, oocytes are injected with 500 pg promiscuous Gα subunits mRNA in order to observe coupling to Ca^++ activated Cl^− currents.
Each of the compounds was tested at 10 μM. Oocytes expressing SNORF25 generated inward Cl^− currents, consistent with CFTR activation, in response to all four of the ligands.
The activity of SNORF25 was therefore tested in oocytes co-injected with mRNA encoding SNORF25 and mRNA encoding CFTR. In 17 out of 39 of these oocytes an inward Cl^− current (105±20 nA) was measured in response to the application of 10 μM all-trans-retinoic acid (See FIGS. 9A–9C and 10).

T2 sequence (P21918 whole entry): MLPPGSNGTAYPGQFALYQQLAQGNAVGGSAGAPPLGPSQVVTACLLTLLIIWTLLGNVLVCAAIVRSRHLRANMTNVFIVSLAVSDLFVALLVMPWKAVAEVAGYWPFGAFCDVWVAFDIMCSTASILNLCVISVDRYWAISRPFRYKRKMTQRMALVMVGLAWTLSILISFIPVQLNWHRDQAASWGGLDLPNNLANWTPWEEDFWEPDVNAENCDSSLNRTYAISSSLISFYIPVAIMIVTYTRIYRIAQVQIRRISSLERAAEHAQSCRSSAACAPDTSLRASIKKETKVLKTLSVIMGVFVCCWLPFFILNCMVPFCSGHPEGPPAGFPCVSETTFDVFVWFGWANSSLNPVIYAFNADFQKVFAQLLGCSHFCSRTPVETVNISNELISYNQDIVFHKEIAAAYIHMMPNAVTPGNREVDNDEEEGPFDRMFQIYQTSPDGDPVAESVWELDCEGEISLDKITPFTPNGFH

Emax of cAMP response (SNORF25 receptor): 200–300%
cAMP response (dopamine D5 receptor): no response
inward Cl- current amplitude (SNORF25; 10 μM, oocytes with SNORF25 and CFTR mRNA): 105±20 nA
delay for activation of CFTR (SNORF25; SNORF25-expressing oocytes): ~10 s
Structure (SMILES): CC1=C(/C=C/C(C)=C/C=C/C(C)=C/C(=O)O)C(C)(C)CCC1 [ATRA, all-trans-retinoic acid]
current response in oocytes injected with only CFTR mRNA [1]: no such current was observed
